Measurements published in ChEMBL document CHEMBL1165847, “Urotensin-II receptor modulators as potential drugs” (J Med Chem, 2010).
Counter-ions that a name gives are not always drawn. Values belong to the compound of their own block, whether it stands above or below them. Activity calls are given as the source filed them. The rule behind the calls is not given here. Where a SMILES comes first, the peptide text is derived from it.

Tests used:
[1] = molecular target: T1, Urotensin-2 receptor (Rattus norvegicus) (UniProt P49684); assay: Antagonist activity at rat urotensin 2 receptor expressed in CHO cells assessed as calcium mobilization at 300 nM by FLIPR; assay type: functional, cell-based
T1 sequence (whole entry): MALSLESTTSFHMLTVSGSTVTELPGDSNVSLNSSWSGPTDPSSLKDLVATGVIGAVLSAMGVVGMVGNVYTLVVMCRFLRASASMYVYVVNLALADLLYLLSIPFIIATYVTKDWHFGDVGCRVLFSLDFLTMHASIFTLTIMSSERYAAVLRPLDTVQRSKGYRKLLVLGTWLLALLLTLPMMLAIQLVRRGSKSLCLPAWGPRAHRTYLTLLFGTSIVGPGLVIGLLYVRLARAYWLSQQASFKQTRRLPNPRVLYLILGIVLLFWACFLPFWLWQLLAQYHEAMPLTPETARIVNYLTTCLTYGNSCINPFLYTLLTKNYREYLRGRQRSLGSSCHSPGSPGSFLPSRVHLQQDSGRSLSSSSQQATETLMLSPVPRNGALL

[2] = molecular target: T1, Urotensin-2 receptor (Rattus norvegicus); assay: Agonist activity at rat urotensin 2 receptor expressed in CHO cells assessed as calcium mobilization at 500 nM by FLIPR; assay type: functional, cell-based
Urotensin-2 receptor [3] = molecular target: T2, Urotensin-2 receptor (Rattus norvegicus, UniProt P49684); assay: Displacement of [125I]U2 from rat urotensin 2 receptor expressed in CHO cells; assay type: cell-based
T2 sequence (P49684 whole entry): T1 sequence (whole entry)

Urotensin-2 receptor [4] = molecular target: T3, Urotensin-2 receptor (Homo sapiens, UniProt Q9UKP6); assay: Agonist activity at human urotensin 2 expressed in CHO cells by FLIPR; assay type: functional, cell-based
T3 sequence (Q9UKP6 whole entry): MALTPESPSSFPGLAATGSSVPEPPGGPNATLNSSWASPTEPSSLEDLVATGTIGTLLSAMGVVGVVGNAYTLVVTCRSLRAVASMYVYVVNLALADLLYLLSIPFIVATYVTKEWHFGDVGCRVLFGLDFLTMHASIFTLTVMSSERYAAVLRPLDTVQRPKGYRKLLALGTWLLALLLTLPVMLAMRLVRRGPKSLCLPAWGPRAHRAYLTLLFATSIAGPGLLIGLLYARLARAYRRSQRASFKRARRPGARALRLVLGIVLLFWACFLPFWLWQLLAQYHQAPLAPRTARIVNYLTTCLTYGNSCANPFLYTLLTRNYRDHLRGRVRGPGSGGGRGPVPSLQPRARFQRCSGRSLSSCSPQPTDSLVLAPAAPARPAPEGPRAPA

Mus musculus = assay: Reduction in atherosclerotic lesion size in Apo-E knockout mouse at 30 mg/kg, po qd for 10 weeks; assay type: functional; design: scale not given: the % may be the effect or the level left
Urotensin-2 receptor [5] = molecular target: T2, Urotensin-2 receptor; assay: Binding affinity to rat urotensin 2 receptor
[6] = Oral bioavailability in rat; assay type: ADME, organism-based; details: in vivo
Urotensin-2 receptor [7] = molecular target: T2, Urotensin-2 receptor; assay: Agonist activity at rat urotensin 2 receptor expressed in CHO cells assessed as calcium mobilization at 1000 nM by FLIPR; assay type: functional, cell-based
Urotensin-2 receptor [8] = molecular target: T3, Urotensin-2 receptor; assay: Binding affinity to human urotensin 2 receptor
Urotensin-2 receptor [9] = molecular target: T2, Urotensin-2 receptor; assay: Agonist activity at rat urotensin 2 receptor expressed in CHO cells assessed as calcium mobilization by FLIPR; assay type: functional, cell-based
[10] = molecular target: T1, Urotensin-2 receptor (Rattus norvegicus); assay: Antagonist activity at rat urotensin 2 receptor expressed in CHO cells assessed as calcium mobilization at 100 nM by FLIPR; assay type: functional, cell-based
Rattus norvegicus [11] = assay: Decrease in urotensin-2-induced temperature of ear pinna in rat ear-flush model at 10 ug/ml, iv for 15 mins; assay type: functional, organism-based
Urotensin II receptor = molecular target: T4, Urotensin II receptor (Felis catus, UniProt Q533H1); assay: Binding affinity to cat urotensin 2 receptor
T4 sequence (Q533H1 whole entry): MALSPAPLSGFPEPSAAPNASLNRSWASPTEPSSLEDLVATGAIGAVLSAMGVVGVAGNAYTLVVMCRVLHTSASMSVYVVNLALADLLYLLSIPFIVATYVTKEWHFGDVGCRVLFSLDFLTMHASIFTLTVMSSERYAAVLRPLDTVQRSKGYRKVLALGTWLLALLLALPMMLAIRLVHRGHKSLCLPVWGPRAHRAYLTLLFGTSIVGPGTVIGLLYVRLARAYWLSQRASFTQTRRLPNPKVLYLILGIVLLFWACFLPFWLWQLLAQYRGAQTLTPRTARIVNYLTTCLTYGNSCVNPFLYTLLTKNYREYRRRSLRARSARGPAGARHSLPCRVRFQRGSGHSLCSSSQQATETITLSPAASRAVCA

Urotensin-2 receptor [12] = molecular target: T2, Urotensin-2 receptor; assay: Antagonist activity at rat urotensin 2 receptor expressed in CHO cells assessed as calcium mobilization by FLIPR; assay type: functional, cell-based
Aorta = assay: Vasorelaxation activity against urotensin-2-induced contraction in isolated rat aorta assessed as restoration of renal blood flow at 10 mg/kg/hr, iv; assay type: functional, organism-based
Rattus norvegicus [13] = assay: Plasma concentration in rat at 10 mg/kg, iv; assay type: ADME, organism-based; design: dose 10 mg/kg, route intravenous; details: in vivo
Urotensin-2 receptor [14] = molecular target: T5, Urotensin-2 receptor (Macaca mulatta, UniProt Q8HYC3); assay: Binding affinity to monkey urotensin 2 receptor
T5 sequence (Q8HYC3 whole entry): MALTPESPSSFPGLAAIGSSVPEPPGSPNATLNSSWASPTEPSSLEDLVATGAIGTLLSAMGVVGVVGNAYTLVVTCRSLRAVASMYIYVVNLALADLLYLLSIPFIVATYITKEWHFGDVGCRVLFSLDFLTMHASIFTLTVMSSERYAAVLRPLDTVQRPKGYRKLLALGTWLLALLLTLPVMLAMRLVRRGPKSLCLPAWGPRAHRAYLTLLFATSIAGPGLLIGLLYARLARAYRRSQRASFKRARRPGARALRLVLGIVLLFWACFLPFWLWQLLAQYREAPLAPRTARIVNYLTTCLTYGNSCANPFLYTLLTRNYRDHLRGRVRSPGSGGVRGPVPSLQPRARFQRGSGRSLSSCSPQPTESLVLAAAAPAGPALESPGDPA

Urotensin-2 receptor [15] = molecular target: T6, Urotensin-2 receptor (Mus musculus, UniProt Q8VIH9); assay: Binding affinity to mouse urotensin 2 receptor
T6 sequence (Q8VIH9 whole entry): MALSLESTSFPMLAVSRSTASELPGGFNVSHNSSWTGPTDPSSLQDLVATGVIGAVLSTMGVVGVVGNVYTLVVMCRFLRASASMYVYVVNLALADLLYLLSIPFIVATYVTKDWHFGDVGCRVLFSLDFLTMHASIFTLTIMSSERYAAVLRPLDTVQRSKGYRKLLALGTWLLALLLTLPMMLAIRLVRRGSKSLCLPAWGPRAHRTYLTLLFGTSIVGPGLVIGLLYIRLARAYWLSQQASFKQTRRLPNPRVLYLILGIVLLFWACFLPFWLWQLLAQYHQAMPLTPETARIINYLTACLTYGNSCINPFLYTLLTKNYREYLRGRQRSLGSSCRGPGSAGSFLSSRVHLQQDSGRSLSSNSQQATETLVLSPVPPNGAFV

Activity [1]: inactive
Activity [2]: 57%
Ki (Urotensin-2 receptor [3]; cho): < 10000 nM
SMILES: CC(=O)N[C@@H](Cc1ccccc1)C(=O)N[C@@H](Cc1c[nH]c2ccccc12)C(=O)N[C@@H](CCCCN)C(=O)N[C@@H](Cc1ccc(O)cc1)C(N)=O (Ac-FWKY-NH2)

Ki (Urotensin-2 receptor [3]): 3.2 nM
Ki (Urotensin-2 receptor [4]): 250 nM
SMILES: CN(C)CCCOc1ccc(CN2CC[C@H](NC(=O)c3ccc(Cl)c(Cl)c3)C2)cc1

Ki (Urotensin-2 receptor [5]): 121 nM
bioavailability [6]: 100%
SMILES: CN(C)CCOc1cc(NS(=O)(=O)c2c(Cl)cc(C(F)(F)F)cc2Cl)ccc1Cl [SB611812]
Activity (Mus musculus): 64%

Ki (Urotensin-2 receptor [7]): 600 nM
Ki (Urotensin-2 receptor [8]): 12 nM
SMILES: CC(C)[C@H](NC(=O)c1cc2ccccc2s1)C(=O)N[C@H]1CCN(Cc2ccc(OCCCN(C)C)cc2)C1

Ki (Urotensin-2 receptor [9]): 6.3 nM
bioavailability [6]: 35%
Ki (Urotensin-2 receptor [4]): 390 nM
SMILES: CCN1CCN(c2cccc3c2[C@H]2CCC[C@H](c4ccc(OC)c(OC)c4)N2C3=O)CC1

inhibition [10]: 74%
bioavailability [6]: 10%
SMILES: CCN1CCN(c2cccc3c2CN([C@@H](CCCNS(=O)(=O)c2cccs2)c2ccc(OC)c(OC)c2)C3=O)CC1
Activity (Rattus norvegicus [11]): Active

IC50 (Urotensin-2 receptor [8]): 3.6 nM
Ki (Urotensin-2 receptor [8]): 5 nM
Ki (Urotensin II receptor): > 1000 nM
Ki (Urotensin-2 receptor [12]): > 1000 nM
concentration (Rattus norvegicus [13]): 5 µM
Ki (Urotensin-2 receptor [14]): 4 nM
Ki (Urotensin-2 receptor [15]): > 1000 nM
SMILES: Cc1cc(NC(=O)NCCN2CCC(O)(Cc3ccccc3)CC2)c2ccccc2n1 [PALOSURAN SULFATE]
Activity (Aorta): Active
